Measured values published in patent publication US20240082296A1, “TREATMENT OF MUSCLE ATROPHY USING DEXTRAN SULFATE” (TX MEDIC AB, priority 2020, published 2024).
Marks after values point to notes of the source that are not given here.

Test system: severe traumatic brain injury (sTBI) in rats
Test: HPLC of free amino acids and amino group containing compounds in rat brain after sTBI (Example 4)
Type: in vivo
Method: The effects of daily sub-cutaneous injections of dextran sulfate on glutamate excitotoxicity and mitochondrial function after severe traumatic brain injury (sTBI) in rats were evaluated by high-performance liquid chromatography (HPLC) analysis of frozen brain samples.
The experimental protocol used in this study was approved by the Ethical Committee of the Catholic University of Rome, according to international standards and guidelines for animal care. Male Wistar rats of 300-350 g body weight (b.w.) were fed with standard laboratory diet and water ad libitum in a controlled environment.
They were divided into three groups: • 1) n=6 animals subjected to sTBI, with drug administration after 30 minutes and sacrifice at 2 days post-TBI (Acute phase 1) • 2) n=6 animals subjected to severe-TBI, with drug administration after 30 minutes and sacrifice at 7 days post-TBI (Acute phase 2). • 3) n=6 animals subjected to severe-TBI, with drug administration after 3 days and sacrifice at 7 days post-TBI (Chronic phase).
As the anesthetic mixture, animals received 35 mg/kg b.w. ketamine and 0.25 mg/kg b.w. midazolam by i.p. injection. sTBI was induced by dropping a 450 g weight from 2 m height on to the rat head that had been protected by a metal disk previously fixed on the skull, according to the “weight drop” impact acceleration model (Marmarou et al., A new model of diffuse brain injury in rats. Part I: Pathophysiology and biomechanics. J Neurosurg. 1994; 80: 291-300). […] At the end of each period of treatment, rats were anesthetized again and then immediately sacrificed.
The drug treatment was a subcutaneous injection of 0.5 ml of dextran sulfate (Tikomed AB, Viken, Sweden, WO 2016/076780; 15 mg/kg) and administered according to the aforementioned schematic protocol.
An in vivo craniectomy was performed in all animals during anesthesia, after carefully removing the rat's skull, the brain was exposed and removed with a surgical spatula and quickly dropped in liquid nitrogen. After the wet weight (w.w.) determination, tissue preparation was affected as previously disclosed (Tavazzi et al., Cerebral oxidative stress and depression of energy metabolism correlate with severity of diffuse brain injury in rats. Neurosurgery. 2005; 56: 582-589; Vagnozzi et al., Temporal window of metabolic brain vulnerability to concussions: mitochondrial-related impairment-part I. Neurosurgery. 2007; 61: 379-388; Tavazzi et al., Temporal window of metabolic brain vulnerability to concussions: oxidative and nitrosative stresses-part II. Neurosurgery. 2007; 61: 390-395; Amorini et al., Severity of experimental traumatic brain injury modulates changes in concentrations of cerebral free amino acids. J Cell Mol Med. 2017; 21: 530-542.). Briefly, whole brain homogenization was performed with 7 ml of ice-cold, nitrogen-saturated, precipitating solution composed by CH3CN+10 mM KH2PO4, pH 7.40, (3:1; v:v), and using an Ultra-Turrax set at 24,000 rpm/min (Janke & Kunkel, Staufen, Germany). After centrifugation at 20,690×g, for 10 min at 4° C., the clear supernatants were saved, pellets were supplemented with 3 ml of the precipitating solution and homogenized again as described above. A second centrifugation was performed (20,690×g, for 10 min at 4° C.), pellets were saved, supernatants combined with those previously obtained, extracted by vigorous agitation with a double volume of HPLC-grade CHCl3 and centrifuged as above. The upper aqueous phases containing water-soluble low-molecular weight compounds were collected, subjected to chloroform washings for two more times (this procedure allowed the removal of all the organic solvent and of any lipid soluble compound from the buffered tissue extracts), adjusted in volumes with 10 mM KH2PO4, pH 7.40, to have ultimately aqueous 10% tissue homogenates and saved at −80° C. until assayed. […]

[1] = Acute phase 1 (15 mg/kg s.c. 30 min after sTBI, sacrifice 2 days post-TBI)
[2] = Acute phase 2 (15 mg/kg s.c. 30 min after sTBI, sacrifice 7 days post-TBI)
[3] = Chronic phase (15 mg/kg s.c. 3 days after sTBI, sacrifice 7 days post-TBI)

## dextran sulfate
[1]
  cerebral ALA concentration: 0.50 ± 0.12^a μmol/g (w.w.)
  cerebral ARG concentration: 0.13 ± 0.02^b,d μmol/g (w.w.)
  cerebral ASN concentration: 0.12 ± 0.02^i μmol/g (w.w.)
  cerebral ASP concentration: 2.40 ± 0.56^d,i μmol/g (w.w.)
  cerebral CITR concentration: 0.018 ± 0.004 µmol/g (w.w.)
  cerebral GABA concentration: 1.43 ± 0.25^a μmol/g (w.w.)
  cerebral GLN concentration: 4.78 ± 1.09^a μmol/g (w.w.)
  cerebral GLU concentration: 9.81 ± 1.66^i μmol/g (w.w.)
  cerebral GLY concentration: 0.83 ± 0.25^a,c μmol/g (w.w.)
  cerebral HIS concentration: 0.068 ± 0.015^b μmol/g (w.w.)
  cerebral ILE concentration: 0.038 ± 0.007 µmol/g (w.w.)
  cerebral L-Cystat concentration: 0.185 ± 0.031^b,c,i μmol/g (w.w.)
  cerebral LEU concentration: 0.021 ± 0.005^a,c μmol/g (w.w.)
  cerebral LYS concentration: 0.236 ± 0.057^b,d,h μmol/g (w.w.)
  cerebral MET concentration: 0.016 ± 0.005^d,j μmol/g (w.w.)
  cerebral ORN concentration: 0.014 ± 0.007 µmol/g (w.w.)
  cerebral PHE concentration: 0.031 ± 0.011^b,d μmol/g (w.w.)
  cerebral SAH concentration: 0.033 ± 0.008^b,c,j μmol/g (w.w.)
  cerebral SER concentration: 0.88 ± 0.25^a μmol/g (w.w.)
  cerebral TAU concentration: 4.86 ± 0.85^b μmol/g (w.w.)
  cerebral THR concentration: 0.92 ± 0.29^a μmol/g (w.w.)
  cerebral TRP concentration: 0.030 ± 0.007^b,dg,i μmol/g (w.w.)
  cerebral TYR concentration: 0.15 ± 0.03 µmol/g (w.w.)
  cerebral VAL concentration: 0.042 ± 0.011 µmol/g (w.w.)
[2]
  cerebral ALA concentration: 0.52 ± 0.24^a,e μmol/g (w.w.)
  cerebral ARG concentration: 0.16 ± 0.03 µmol/g (w.w.)
  cerebral ASN concentration: 0.13 ± 0.03^i μmol/g (w.w.)
  cerebral ASP concentration: 2.94 ± 0.98^f,j μmol/g (w.w.)
  cerebral CITR concentration: 0.018 ± 0.008 µmol/g (w.w.)
  cerebral GABA concentration: 1.60 ± 0.24^a μmol/g (w.w.)
  cerebral GLN concentration: 3.66 ± 0.41 µmol/g (w.w.)
  cerebral GLU concentration: 9.93 ± 1.56^e,i μmol/g (w.w.)
  cerebral GLY concentration: 0.71 ± 0.16^f,i μmol/g (w.w.)
  cerebral HIS concentration: 0.055 ± 0.019 µmol/g (w.w.)
  cerebral ILE concentration: 0.048 ± 0.017^a μmol/g (w.w.)
  cerebral L-Cystat concentration: 0.173 ± 0.038^b,f,i μmol/g (w.w.)
  cerebral LEU concentration: 0.018 ± 0.004 µmol/g (w.w.)
  cerebral LYS concentration: 0.32 ± 0.04^a,e,i μmol/g (w.w.)
  cerebral MET concentration: 0.022 ± 0.006^b,e,i μmol/g (w.w.)
  cerebral ORN concentration: 0.011 ± 0.005 µmol/g (w.w.)
  cerebral PHE concentration: 0.028 ± 0.010 µmol/g (w.w.)
  cerebral SAH concentration: 0.026 ± 0.010^f,i μmol/g (w.w.)
  cerebral SER concentration: 0.71 ± 0.28^b μmol/g (w.w.)
  cerebral TAU concentration: 3.80 ± 1.19 µmol/g (w.w.)
  cerebral THR concentration: 0.66 ± 0.23 µmol/g (w.w.)
  cerebral TRP concentration: 0.015 ± 0.006 µmol/g (w.w.)
  cerebral TYR concentration: 0.172 ± 0.046^b,f μmol/g (w.w.)
  cerebral VAL concentration: 0.057 ± 0.017 µmol/g (w.w.)
[3]
  cerebral ALA concentration: 0.57 ± 0.28^a,e μmol/g (w.w.)
  cerebral ARG concentration: 0.14 ± 0.02 µmol/g (w.w.)
  cerebral ASN concentration: 0.18 ± 0.02^a μmol/g (w.w.)
  cerebral ASP concentration: 4.46 ± 0.70^a,f μmol/g (w.w.)
  cerebral CITR concentration: 0.020 ± 0.006 µmol/g (w.w.)
  cerebral GABA concentration: 1.85 ± 0.65^a μmol/g (w.w.)
  cerebral GLN concentration: 3.98 ± 0.34 µmol/g (w.w.)
  cerebral GLU concentration: 13.58 ± 1.28^a μmol/g (w.w.)
  cerebral GLY concentration: 1.05 ± 0.13^a,f μmol/g (w.w.)
  cerebral HIS concentration: 0.047 ± 0.021 µmol/g (w.w.)
  cerebral ILE concentration: 0.041 ± 0.016^b μmol/g (w.w.)
  cerebral L-Cystat concentration: 0.26 ± 0.05^a,f μmol/g (w.w.)
  cerebral LEU concentration: 0.024 ± 0.032^b,f μmol/g (w.w.)
  cerebral LYS concentration: 0.179 ± 0.036 µmol/g (w.w.)
  cerebral MET concentration: 0.009 ± 0.004^b μmol/g (w.w.)
  cerebral ORN concentration: 0.017 ± 0.009^a,e μmol/g (w.w.)
  cerebral PHE concentration: 0.033 ± 0.011^b μmol/g (w.w.)
  cerebral SAH concentration: 0.050 ± 0.013^a μmol/g (w.w.)
  cerebral SER concentration: 0.93 ± 0.27^a,e μmol/g (w.w.)
  cerebral TAU concentration: 4.49 ± 0.43^a μmol/g (w.w.)
  cerebral THR concentration: 0.75 ± 0.24^a,e μmol/g (w.w.)
  cerebral TRP concentration: 0.012 ± 0.007 µmol/g (w.w.)
  cerebral TYR concentration: 0.21 ± 0.05^f μmol/g (w.w.)
  cerebral VAL concentration: 0.040 ± 0.016^b μmol/g (w.w.)
Drug administered early post-injury (30 min following sTBI), 15 mg/kg s.c.
  increase in cerebral glutamate (GLU) induced by sTBI: remarkable inhibition
Drug injected at 3 days after sTBI
  efficacy on glutamate excitotoxicity marker: no efficacy
Rat brain after sTBI, 15 mg/kg s.c.
  compounds of the methyl cycle (Met, L-Cystat, SAH): significant beneficial effects
